Literature values in patent publication US20190054079A1, “ENHANCEMENT OF IMPAIRED MOTOR AND MENTAL FUNCTIONS, USING DEXTROMETHORPHAN AND OXIDASE ENZYME INHIBITOR” (Avanir Pharmaceuticals, Inc., priority 2004, published 2019).

How the values were obtained:
[1] = tested on: patients suffering from neurological disorders (such as ALS); conditions: DM alone, late 1980's and early 1990's
[2] = tested on: NMDA receptors
[3] = tested on: sigma receptors
[4] = target: P450-2D6 enzyme (Homo sapiens, UniProt P10635); conditions: among known drugs in Inaba et al 1985 and 1986
Sequence of P450-2D6 enzyme (P10635 whole entry): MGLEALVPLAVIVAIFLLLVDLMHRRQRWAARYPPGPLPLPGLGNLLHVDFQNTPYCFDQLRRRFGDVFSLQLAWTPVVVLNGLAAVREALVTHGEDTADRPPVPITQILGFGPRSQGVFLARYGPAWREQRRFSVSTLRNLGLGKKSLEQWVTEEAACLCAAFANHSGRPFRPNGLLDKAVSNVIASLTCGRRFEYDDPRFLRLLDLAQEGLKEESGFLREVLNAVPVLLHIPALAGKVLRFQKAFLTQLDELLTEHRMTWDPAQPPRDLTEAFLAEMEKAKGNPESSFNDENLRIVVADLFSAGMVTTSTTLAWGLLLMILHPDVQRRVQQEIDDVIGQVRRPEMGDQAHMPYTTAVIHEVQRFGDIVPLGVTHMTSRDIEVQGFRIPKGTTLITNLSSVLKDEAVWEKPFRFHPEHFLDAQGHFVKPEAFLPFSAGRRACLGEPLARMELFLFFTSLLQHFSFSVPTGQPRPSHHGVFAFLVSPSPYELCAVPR

| SMILES | benefit in slowing progression of neurological diseases [1] | activity at NMDA receptors [2] | activity at sigma receptors [3] | potency of P450-2D6 inhibition [4] |
| --- | --- | --- | --- | --- |
| COc1ccc2c(c1)[C@@]13CCCC[C@H]1[C@@H](C2)N(C)CC3 [Dextromethorphan, (+)-3-methoxy-N-methylmorphinan] | did not show enough benefits | mildly suppresses activity | stimulates activity |  |
| C=C[C@H]1C[N@@]2CC[C@H]1C[C@@H]2[C@@H](O)c1ccnc2ccc(OC)cc12 [quinidine] |  |  |  | most potent P450-2D6 inhibitor |
